US20240366598A1, “GLUCOSE-DEPENDENT INSULINOTROPIC POLYPEPTIDE RECEPTOR ANTAGONISTS AND USES THEREOF” (Pfizer Inc., priority 2023, published 2024)

What follows are molecules tested against T1, human Glucose-dependent Insulinotropic Polypeptide Receptor (hGIPR) (Homo sapiens, UniProt P48546) (assay: Functional in vitro GIPR antagonist potency assay (cAMP HTRF, CHO-K1 cells stably expressing hGIPR, hGIP stimulation at about EC80)). Settings: geometric mean, hGIP at estimated EC80, examples marked ^2: overall geometric mean of multiple forms (including salts) tested.
T1 sequence (P48546 22-466): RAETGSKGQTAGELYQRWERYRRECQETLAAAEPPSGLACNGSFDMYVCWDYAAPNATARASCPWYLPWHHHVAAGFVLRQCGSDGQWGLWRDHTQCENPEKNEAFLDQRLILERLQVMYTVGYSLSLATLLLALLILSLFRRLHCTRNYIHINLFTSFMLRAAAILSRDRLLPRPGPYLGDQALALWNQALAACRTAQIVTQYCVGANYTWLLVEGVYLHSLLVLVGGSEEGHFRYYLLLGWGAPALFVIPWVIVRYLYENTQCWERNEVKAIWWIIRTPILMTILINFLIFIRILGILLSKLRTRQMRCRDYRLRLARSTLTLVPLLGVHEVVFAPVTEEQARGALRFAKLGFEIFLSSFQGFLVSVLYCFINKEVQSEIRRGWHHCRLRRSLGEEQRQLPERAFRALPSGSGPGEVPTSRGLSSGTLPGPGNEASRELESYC
Assay type: cell-based
Method in brief: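 HTRF quantification of cAMP after stimulation with hGIP at an estimated EC80 for 30 min at 37 °C. Before stimulation, hGIPR-expressing CHO-K1 cells were exposed 2 h to test compound in IBMX-containing buffer, with 0.5% DMSO final. Percent effect is referenced to agonist alone (0%) and to 80 μM of a reference antagonist (100%), and runs required the agonist concentration to fall within the on-the-day EC50–EC90.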

Point of comparison: `COc1cc(-c2ccc(NC(=O)[C@H]3CCCN3C(=O)Nc3ccc(C(C)C)cc3)cc2)ccc1C(=O)O` [Example 21, 3-Methoxy-4′-[(1-{[4-(propan-2-yl)phenyl]carbamoyl}-D-prolyl)amino][1,1′-biphenyl]-4-carboxylic acid], IC50 11 nM. Against it:
- CC(C)c1ccc(NC(=O)N2C[C@@H]3C[C@@H]3[C@@H]2C(=O)Nc2ccc(-c3ccc(C(=O)O)cc3)cc2)cc1 [Example 105, 4′-{[(1S,2R,5R)-3-{[4-(propan-2-yl)phenyl]carbamoyl}-3-azabicyclo[3.1.0]hexane-2-carbonyl]amino}[1,1′-biphenyl]-4-carboxylic acid] — within 1.5-fold, 8.8 nM
- Cc1cc(NC(=O)N2CCC[C@@H]2C(=O)Nc2ccc(-c3cccc(C(=O)O)c3)cn2)ccc1C(C)C [Example 183, 3-{6-[(1-{[3-methyl-4-(propan-2-yl)phenyl]carbamoyl}-D-prolyl)amino]pyridin-3-yl}benzoic acid] — within 1.5-fold, 9.3 nM
- CC(C)c1ccc(NC(=O)N2CCC[C@@H]2C(=O)Nc2cnc(-c3ccc(C(=O)O)cc3)c(F)c2)cc1 [Example 33, 4-{3-Fluoro-5-[(1-{[4-(propan-2-yl)phenyl]carbamoyl}-D-prolyl)amino]pyridin-2-yl}benzoic acid] — 1.7-fold lower, 6.3 nM
- O=C(O)c1ccc(-c2ccc(NC(=O)[C@H]3CCCN3C(=O)NCc3ccc(C(F)(F)F)cc3)cc2)cc1 [Example 157, 4′-{[1-({[4-(trifluoromethyl)phenyl]methyl}carbamoyl)-D-prolyl]amino}[1,1′-biphenyl]-4-carboxylic acid] — within 1.5-fold, 10 nM
- CC(C)c1ccc(NC(=O)N2CCC[C@@H]2C(=O)Nc2ccc(-c3cccc(C(=O)O)n3)c(F)c2)cc1 [Example 75, 6-{2-fluoro-4-[(1-{[4-(propan-2-yl)phenyl]carbamoyl}-D-prolyl)amino]phenyl}pyridine-2-carboxylic acid] — 13-fold higher, 140 nM
- Cc1cc(NC(=O)N2CCC[C@@H]2C(=O)Nc2ccc3cc(C(=O)O)ccc3c2)ccc1C(C)C [Example 162, 6-[(1-{[3-methyl-4-(propan-2-yl)phenyl]carbamoyl}-D-prolyl)amino]naphthalene-2-carboxylic acid] — 4-fold higher, 44 nM
- CC(C)c1ccc(NC(=O)N2CCC[C@@H]2C(=O)Nc2ccc(-c3ccc(C(=O)O)nc3)cc2)cc1F [Example 208, 5-{4-[(1-{[3-fluoro-4-(propan-2-yl)phenyl]carbamoyl}-D-prolyl)amino]phenyl}pyridine-2-carboxylic acid] — 2.2-fold lower, 4.9 nM
- O=C(O)[C@@H]1CCc2nc(NC(=O)[C@H]3CCCN3C(=O)Nc3ccc(C(F)(F)F)cc3)ccc2C1 (single isomer, unassigned) [Example 218, 2-[(1-{[4-(trifluoromethyl)phenyl]carbamoyl}-D-prolyl)amino]-5,6,7,8-tetrahydroquinoline-6-carboxylic acid, DIAST-2] — 3-fold higher, 33 nM
- COc1cc(-c2ccc(NC(=O)[C@H]3CCCN3C(=O)Nc3ccc(C(F)(F)F)c(C)c3)cc2)ccc1C(=O)O [Example 158, 3-methoxy-4′-[(1-{[3-methyl-4-(trifluoromethyl)phenyl]carbamoyl}-D-prolyl)amino][1,1′-biphenyl]-4-carboxylic acid] — within 1.5-fold, 7.7 nM
- CC(C)c1ccc(NC(=O)N2CCC[C@@H]2C(=O)Nc2ccc(-c3ccc(C(=O)O)cc3)nc2)cc1F [Example 194, 4-{5-[(1-{[3-fluoro-4-(propan-2-yl)phenyl]carbamoyl}-D-prolyl)amino]pyridin-2-yl}benzoic acid] — within 1.5-fold, 14 nM
- CC(C)c1ccc(NC(=O)N2CCC[C@@H]2C(=O)Nc2ccc(-c3ccc(O)cc3)cc2)cc1 [Example 46, (2R)-N^2-(4′-hydroxy[1,1′-biphenyl]-4-yl)-N^1-[4-(propan-2-yl)phenyl]pyrrolidine-1,2-dicarboxamide] — 15-fold higher, 160 nM
- CC(C)c1ccc(NC(=O)N2C[C@H]3C[C@H]3[C@@H]2C(=O)Nc2ccc(-c3ccc(C(=O)O)cc3)cc2)cc1 [Example 104, 4′-{[(1R,2R,5S)-3-{[4-(propan-2-yl)phenyl]carbamoyl}-3-azabicyclo[3.1.0]hexane-2-carbonyl]amino}[1,1′-biphenyl]-4-carboxylic acid] — 3.8-fold lower, 2.9 nM
- O=C(O)c1ccc(-c2ccc(NC(=O)[C@H]3CCCN3C(=O)Nc3ccc(C(F)(F)F)cc3)cc2)cn1 [Example 196, 5-{4-[(1-{[4-(trifluoromethyl)phenyl]carbamoyl}-D-prolyl)amino]phenyl}pyridine-2-carboxylic acid] — 4.5-fold higher, 49 nM
- O=C(O)c1ccc(-c2ccc(NC(=O)[C@H]3CCCN3C(=O)Nc3ccc(C(F)(F)F)cc3)nc2)cc1 [Example 31, 4-{6-[(1-{[4-(Trifluoromethyl)phenyl]carbamoyl}-D-prolyl)amino]pyridin-3-yl}benzoic acid] — within 1.5-fold, 7.8 nM
- CC(C)c1ccc(NC(=O)N2CCC[C@@H]2C(=O)Nc2ccc(-c3ccc(C(N)=O)cc3)cc2)cc1 [Example 91, (2R)-N^2-(4′-carbamoyl[1,1′-biphenyl]-4-yl)-N^1-[4-(propan-2-yl)phenyl]pyrrolidine-1,2-dicarboxamide] — 3.5-fold higher, 39 nM
- COc1ccc(-c2ccc(NC(=O)[C@H]3CCCN3C(=O)Nc3ccc(C(C)C)cc3)cc2)cc1C(=O)O [Example 93, 4-methoxy-4′-[(1-{[4-(propan-2-yl)phenyl]carbamoyl}-D-prolyl)amino][1,1′-biphenyl]-3-carboxylic acid] — 7.2-fold higher, 79 nM
- CC(C)c1ccc(CNC(=O)N2CCC[C@@H]2C(=O)Nc2ccc(-c3ccc(C(=O)O)cc3)cc2)c(F)c1 [Example 127, 4′-{[1-({[2-fluoro-4-(propan-2-yl)phenyl]methyl}carbamoyl)-D-prolyl]amino}[1,1′-biphenyl]-4-carboxylic acid] — 6.3-fold higher, 69 nM
- Cc1cc(-c2ccc(NC(=O)[C@H]3CCCN3C(=O)Nc3ccc(C(F)(F)F)cc3)cc2)ccc1C(=O)O [Example 209, 3-methyl-4′-[(1-{[4-(trifluoromethyl)phenyl]carbamoyl}-D-prolyl)amino][1,1′-biphenyl]-4-carboxylic acid] — within 1.5-fold, 7.4 nM
- O=C(O)c1ccc(-c2cnc(NC(=O)[C@H]3CCCN3C(=O)Nc3ccc(C(F)(F)F)cc3)c(F)c2)cc1 [Example 24, 4-{5-Fluoro-6-[(1-{[4-(trifluoromethyl)phenyl]carbamoyl}-D-prolyl)amino]pyridin-3-yl}benzoic acid] — 10-fold higher, 110 nM
- Cc1cc(NC(=O)N2CCC[C@@H]2C(=O)Nc2ccc(-c3ccc(C(=O)O)cc3)nc2)ncc1C(C)C [Example 198, 4-{5-[(1-{[4-methyl-5-(propan-2-yl)pyridin-2-yl]carbamoyl}-D-prolyl)amino]pyridin-2-yl}benzoic acid] — 6.3-fold higher, 69 nM
- O=C(O)c1ccc(-c2ccc(NC(=O)[C@H]3CCCN3C(=O)NCc3cnc(C(F)(F)F)nc3)cc2)cc1 [Example 108, 4′-{[1-({[2-(trifluoromethyl)pyrimidin-5-yl]methyl}carbamoyl)-D-prolyl]amino}[1,1′-biphenyl]-4-carboxylic acid] — 24-fold higher, 260 nM
- CC(C)c1ccc(NC(=O)N2CCC[C@@H]2C(=O)Nc2ccc(-c3ccc(C(=O)O)c(F)c3)cc2)cc1 [Example 28, 3-Fluoro-4′-[(1-{[4-(propan-2-yl)phenyl]carbamoyl}-D-prolyl)amino][1,1′-biphenyl]-4-carboxylic acid] — within 1.5-fold, 10 nM
- O=C(O)c1ccc(-c2ccc(NC(=O)[C@H]3CCCN3C(=O)Nc3ccc(C4(C(F)(F)F)CC4)cc3)cc2)cc1 [Example 42, ammonium 4′-{[1-({4-[1-(trifluoromethyl)cyclopropyl]phenyl}carbamoyl)-D-prolyl]amino}[1,1′-biphenyl]-4-carboxylate] — within 1.5-fold, 15 nM
- O=C(O)c1ccc(-c2ccc(NC(=O)[C@H]3CCCN3C(=O)NCc3ccc(C(F)(F)F)cc3Cl)cc2)cc1 [Example 139, 4′-{[1-({[2-chloro-4-(trifluoromethyl)phenyl]methyl}carbamoyl)-D-prolyl]amino}[1,1′-biphenyl]-4-carboxylic acid] — 8.5-fold higher, 93 nM
- Cc1cc(-c2ccc(NC(=O)[C@H]3CCCN3C(=O)NCc3ccc(C(C)C)cc3)nc2)ccc1C(=O)O [Example 191, 2-methyl-4-(6-{[1-{{[4-(propan-2-yl)phenyl]methyl}carbamoyl)-D-prolyl]amino}pyridin-3-yl)benzoic acid] — within 1.5-fold, 14 nM
- CC(C)c1ccc(NC(=O)N2CCC[C@@H]2C(=O)Nc2ccc3cc(C(=O)O)ccc3c2)cc1 [Example 10, 6-[(1-{[4-(propan-2-yl)phenyl]carbamoyl}-D-prolyl)amino]naphthalene-2-carboxylic acid] — 6.1-fold higher, 67 nM
- Cc1nc(C(=O)O)ccc1-c1ccc(NC(=O)[C@H]2CCCN2C(=O)Nc2ccc(C(C)C)cc2)cc1 [Example 20, 6-Methyl-5-{4-[(1-{[4-(propan-2-yl)phenyl]carbamoyl}-D-prolyl)amino]phenyl}pyridine-2-carboxylic acid] — within 1.5-fold, 12 nM
- Cc1nc(C(=O)O)ccc1-c1ccc(NC(=O)[C@H]2CCCN2C(=O)NCc2ccc(C(F)(F)F)cc2)cc1 [Example 206, 6-methyl-5-(4-{[1-{{[4-(trifluoromethyl)phenyl]methyl}carbamoyl)-D-prolyl]amino}phenyl)pyridine-2-carboxylic acid] — within 1.5-fold, 14 nM
- CC(C)c1ccc(NC(=O)N2CCC[C@@H]2C(=O)Nc2ccc(-c3ccc(C(=O)O)nc3)cc2)cc1 [Example 1, Ammonium 5-{4-[(1-{[4-(propan-2-yl)phenyl]carbamoyl}-D-prolyl)amino]phenyl}pyridine-2-carboxylate] — within 1.5-fold, 16 nM
